≈ marks a conversion by molar mass, not a printed value. Read-outs that look alike come from different tables or passages of the source.
Experiments:
S. aureus ATCC 25923 [1] = assay: Antibacterial activity, pre-exposure (planktonic cells and biofilm formation); type: cell-based, Staphylococcus aureus; settings: for MIC / inhibition at 5 µM / inhibition at 10 µM / inhibition at 15 µM / inhibition at 25 µM: Staphylococcus aureus, ATCC25923; for inhibition at 5 µM / inhibition at 10 µM / inhibition at 15 µM / inhibition at 25 µM / Average inhibition %, biofilms viability / Average inhibition %, planktonic cells viability: pre-exposure, ± SD
In short: (§1)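 Growth prevention was tested by adding compounds together with the inoculum. Plates were incubated 18 h at 37 °C. Viability was read by resazurin fluorescence and biomass by crystal violet absorbance at 595 nm.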

S. aureus ATCC 25923 [2] = assay: Antibacterial activity, post-exposure on preformed 18-h-old biofilms; type: cell-based, Staphylococcus aureus; settings: ± SD; for inhibition at 25 µM / inhibition at 50 µM / inhibition at 100 µM / inhibition at 200 µM: Staphylococcus aureus; for inhibition at 25 µM: ATCC25923, 25 µM; for inhibition at 50 µM: ATCC25923, 50 µM; for inhibition at 100 µM: ATCC25923, 100 µM; for inhibition at 200 µM: ATCC25923, 200 µM
In short: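 Biofilms grown 18 h without compound, medium then replaced and compound added for a further 24 h. Planktonic OD and resazurin (20 μM final) fluorescence (ex 560/em 590 nm) read; washed biofilms stained with 20 μM resazurin 30 min at 37 °C, then ethanol-fixed and crystal violet-stained, absorbance 595 nm.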

A. baumannii NCTC 13423 = assay: Antibacterial activity, pre-exposure; type: cell-based, Acinetobacter baumannii; settings: for Average inhibition %, biofilms viability / Average inhibition %, planktonic cells viability / inhibition at 10 µM / inhibition at 15 µM / inhibition at 25 µM / inhibition at 50 µM: A. baumannii NCTC 13423, pre-exposure, ± SD; for inhibition at 10 µM / inhibition at 15 µM / inhibition at 25 µM / inhibition at 50 µM: Acinetobacter baumannii, NCTC13423
In short: as §1

P. aeruginosa ATCC 9027 = assay: Antibacterial activity, pre-exposure; type: cell-based, Pseudomonas aeruginosa; settings: for Average inhibition %, biofilms viability / Average inhibition %, planktonic cells viability / inhibition at 50 µM / inhibition at 100 µM / inhibition at 150 µM / inhibition at 200 µM: P. aeruginosa ATCC 9027, pre-exposure, ± SD; for inhibition at 50 µM / inhibition at 100 µM / inhibition at 150 µM / inhibition at 200 µM: Pseudomonas aeruginosa, ATCC9027
In short: as §1

[3] = 10 µM, read-out: Average inhibition %, biofilms biomass
[4] = 10 µM, read-out: Average inhibition %, planktonic cells turbidity
[5] = 15 µM, read-out: Average inhibition %, biofilms biomass
[6] = 15 µM, read-out: Average inhibition %, planktonic cells turbidity
[7] = 25 µM, read-out: Average inhibition %, biofilms biomass
[8] = 25 µM, read-out: Average inhibition %, planktonic cells turbidity
[9] = read-out: Average inhibition %, biofilms biomass
[10] = read-out: Average inhibition %, planktonic cells turbidity
[11] = 50 µM, read-out: Average inhibition %, biofilms biomass
[12] = 50 µM, read-out: Average inhibition %, planktonic cells turbidity

`CCCCCCCCCCc1ccc(CCC(N)(CO)CO)cc1` [Compound 11, 2-Amino-2-(4-decylphenethyl)propane-1,3-diol] was tested. Which “Initial screening result (active = at least 60% inhibition of planktonic cells and biofilm formation)” value (S. aureus ATCC 25923 [1]; 50 μM, S. aureus) did it give?
The value was “active”.

What about the MIC (S. aureus ATCC 25923 [1]; lowest concentration with no visible growth (>90% inhibition of turbidity and viability of planktonic cells), 18 h, read-out: MIC S. aureus ATCC 25923) of the same compound?
The MIC was 10 to 15 µM (≈ 3.36 to 5.03 µg/mL).

And the inhibition at 5 µM (S. aureus ATCC 25923 [1]; 5 µM, read-out: Average inhibition %, biofilms biomass)?
The inhibition at 5 µM was 40.1 ± 36.6%.

And the inhibition at 5 µM (S. aureus ATCC 25923 [1]; 5 µM, read-out: Average inhibition %, planktonic cells turbidity)?
Its inhibition at 5 µM is 12.5 ± 12.4%.

What about the inhibition at 10 µM (S. aureus ATCC 25923 [1]; [3]) of the same compound?
The inhibition at 10 µM was 75.6 ± 20.8%.

And the inhibition at 10 µM (S. aureus ATCC 25923 [1]; [4])?
Its inhibition at 10 µM is 70.4 ± 40%.

What about the inhibition at 15 µM (S. aureus ATCC 25923 [1]; [5]) of the same compound?
Its inhibition at 15 µM is 87.1 ± 9.9%.

What about the inhibition at 15 µM (S. aureus ATCC 25923 [1]; [6]) of the same compound?
Its inhibition at 15 µM is 97.5 ± 1.9%.

What about the inhibition at 25 µM (S. aureus ATCC 25923 [1]; [7]) of the same compound?
Its inhibition at 25 µM is 89 ± 0.7%.

What about the inhibition at 25 µM (S. aureus ATCC 25923 [1]; [8]) of the same compound?
The inhibition at 25 µM was 97.9 ± 1.2%.

And the MIC (S. aureus ATCC 25923 [1]; read-out: MIC (S. aureus))?
Its MIC is 10 to 15 µM (≈ 3.36 to 5.03 µg/mL).

What about the “Average inhibition %, biofilms viability” value (S. aureus ATCC 25923 [1]; 5 µM) of the same compound?
The value was 41.8 ± 9.7%.

And the “Average inhibition %, planktonic cells viability” value (S. aureus ATCC 25923 [1]; 5 µM)?
Its value is 17 ± 23.3%.

What about the “Average inhibition %, biofilms viability” value (S. aureus ATCC 25923 [1]; 10 µM) of the same compound?
The value was 72.2 ± 23.8%.

What about the “Average inhibition %, planktonic cells viability” value (S. aureus ATCC 25923 [1]; 10 µM) of the same compound?
Its value is 73.3 ± 34.2%.

And the “Average inhibition %, biofilms viability” value (S. aureus ATCC 25923 [1]; 15 µM)?
The value was 84.9 ± 24.9%.

What about the “Average inhibition %, planktonic cells viability” value (S. aureus ATCC 25923 [1]; 15 µM) of the same compound?
Its value is 98.5 ± 1.7%.

And the “Average inhibition %, biofilms viability” value (S. aureus ATCC 25923 [1]; 25 µM)?
The value was 93.8 ± 10.1%.

And the “Average inhibition %, planktonic cells viability” value (S. aureus ATCC 25923 [1]; 25 µM)?
Its value is 99.2 ± 1.3%.

What about the “Average inhibition %, biofilms viability” value (S. aureus ATCC 25923 [2]; 25 µM) of the same compound?
Its value is 10.2 ± 8.5%.

What about the “Average inhibition %, planktonic cells viability” value (S. aureus ATCC 25923 [2]; 25 µM) of the same compound?
Its value is 0 ± 0%.

What about the “Average inhibition %, biofilms viability” value (S. aureus ATCC 25923 [2]; 50 µM) of the same compound?
The value was 17.5 ± 9%.

What about the “Average inhibition %, planktonic cells viability” value (S. aureus ATCC 25923 [2]; 50 µM) of the same compound?
Its value is 0 ± 0%.

What about the “Average inhibition %, biofilms viability” value (S. aureus ATCC 25923 [2]; 100 µM) of the same compound?
Its value is 24.8 ± 10.2%.

What about the “Average inhibition %, planktonic cells viability” value (S. aureus ATCC 25923 [2]; 100 µM) of the same compound?
Its value is 6 ± 10.4%.

What about the “Average inhibition %, biofilms viability” value (S. aureus ATCC 25923 [2]; 200 µM) of the same compound?
The value was 25.8 ± 8.3%.

And the “Average inhibition %, planktonic cells viability” value (S. aureus ATCC 25923 [2]; 200 µM)?
Its value is 30.5 ± 9.5%.

And the inhibition at 25 µM (S. aureus ATCC 25923 [2]; [9])?
The inhibition at 25 µM was 32.6 ± 5.1%.

And the inhibition at 25 µM (S. aureus ATCC 25923 [2]; [10])?
Its inhibition at 25 µM is 8.9 ± 8.2%.

What about the inhibition at 50 µM (S. aureus ATCC 25923 [2]; [9]) of the same compound?
The inhibition at 50 µM was 35.4 ± 2.7%.

What about the inhibition at 50 µM (S. aureus ATCC 25923 [2]; [10]) of the same compound?
Its inhibition at 50 µM is 14 ± 4.2%.

And the inhibition at 100 µM (S. aureus ATCC 25923 [2]; [9])?
The inhibition at 100 µM was 48.9 ± 4.7%.

What about the inhibition at 100 µM (S. aureus ATCC 25923 [2]; [10]) of the same compound?
Its inhibition at 100 µM is 16.2 ± 8.6%.

And the inhibition at 200 µM (S. aureus ATCC 25923 [2]; [9])?
The inhibition at 200 µM was 47.6 ± 7.1%.

And the inhibition at 200 µM (S. aureus ATCC 25923 [2]; [10])?
Its inhibition at 200 µM is 22.2 ± 12.7%.

What about the “Average inhibition %, biofilms viability” value (A. baumannii NCTC 13423; 10 µM) of the same compound?
Its value is 0 ± 0%.

What about the “Average inhibition %, planktonic cells viability” value (A. baumannii NCTC 13423; 10 µM) of the same compound?
Its value is 11.8 ± 6%.

What about the “Average inhibition %, biofilms viability” value (A. baumannii NCTC 13423; 15 µM) of the same compound?
Its value is 0.8 ± 1.4%.

What about the “Average inhibition %, planktonic cells viability” value (A. baumannii NCTC 13423; 15 µM) of the same compound?
The value was 13.2 ± 6.7%.

What about the “Average inhibition %, biofilms viability” value (A. baumannii NCTC 13423; 25 µM) of the same compound?
The value was 3.6 ± 5.6%.

And the “Average inhibition %, planktonic cells viability” value (A. baumannii NCTC 13423; 25 µM)?
The value was 10.3 ± 9%.

And the “Average inhibition %, biofilms viability” value (A. baumannii NCTC 13423; 50 µM)?
Its value is 21.4 ± 1.1%.

What about the “Average inhibition %, planktonic cells viability” value (A. baumannii NCTC 13423; 50 µM) of the same compound?
Its value is 0.1 ± 0.1%.

What about the inhibition at 10 µM (A. baumannii NCTC 13423; [3]) of the same compound?
The inhibition at 10 µM was 5.1 ± 8.9%.

What about the inhibition at 10 µM (A. baumannii NCTC 13423; [4]) of the same compound?
The inhibition at 10 µM was 0%.

What about the inhibition at 15 µM (A. baumannii NCTC 13423; [5]) of the same compound?
Its inhibition at 15 µM is 0%.

And the inhibition at 15 µM (A. baumannii NCTC 13423; [6])?
The inhibition at 15 µM was 0%.

And the inhibition at 25 µM (A. baumannii NCTC 13423; [7])?
Its inhibition at 25 µM is 5.1 ± 4.6%.

And the inhibition at 25 µM (A. baumannii NCTC 13423; [8])?
The inhibition at 25 µM was 0%.

What about the inhibition at 50 µM (A. baumannii NCTC 13423; [11]) of the same compound?
Its inhibition at 50 µM is 15.9 ± 13.8%.

What about the inhibition at 50 µM (A. baumannii NCTC 13423; [12]) of the same compound?
The inhibition at 50 µM was 0%.

What about the “MIC A. baumannii NCTC 13423” value (A. baumannii NCTC 13423; pre-exposure, Inactive = no activity up to 50 μM, > = some inhibition but no MIC reached) of the same compound?
Its value is “Inactive ^d”.

What about the “Average inhibition %, biofilms viability” value (P. aeruginosa ATCC 9027; 50 µM) of the same compound?
Its value is 0 ± 0%.

And the “Average inhibition %, planktonic cells viability” value (P. aeruginosa ATCC 9027; 50 µM)?
The value was 26.2 ± 4.1%.

And the “Average inhibition %, biofilms viability” value (P. aeruginosa ATCC 9027; 100 µM)?
Its value is 0 ± 0%.

And the “Average inhibition %, planktonic cells viability” value (P. aeruginosa ATCC 9027; 100 µM)?
Its value is 6.4 ± 11.1%.

What about the “Average inhibition %, biofilms viability” value (P. aeruginosa ATCC 9027; 150 µM) of the same compound?
Its value is 0 ± 0%.

What about the “Average inhibition %, planktonic cells viability” value (P. aeruginosa ATCC 9027; 150 µM) of the same compound?
Its value is 10.3 ± 9.3%.

And the “Average inhibition %, biofilms viability” value (P. aeruginosa ATCC 9027; 200 µM)?
The value was 0 ± 0%.

And the “Average inhibition %, planktonic cells viability” value (P. aeruginosa ATCC 9027; 200 µM)?
Its value is 1.2 ± 2%.

What about the inhibition at 50 µM (P. aeruginosa ATCC 9027; [11]) of the same compound?
The inhibition at 50 µM was 8.3 ± 5.9%.

And the inhibition at 50 µM (P. aeruginosa ATCC 9027; [12])?
The inhibition at 50 µM was 22.2 ± 20.1%.

And the inhibition at 100 µM (P. aeruginosa ATCC 9027; 100 µM, read-out: Average inhibition %, biofilms biomass)?
The inhibition at 100 µM was 13 ± 13.3%.

And the inhibition at 100 µM (P. aeruginosa ATCC 9027; 100 µM, read-out: Average inhibition %, planktonic cells turbidity)?
Its inhibition at 100 µM is 20.4 ± 17.1%.

What about the inhibition at 150 µM (P. aeruginosa ATCC 9027; 150 µM, read-out: Average inhibition %, biofilms biomass) of the same compound?
Its inhibition at 150 µM is 12.1 ± 11.1%.

And the inhibition at 150 µM (P. aeruginosa ATCC 9027; 150 µM, read-out: Average inhibition %, planktonic cells turbidity)?
The inhibition at 150 µM was 7.6 ± 5.1%.

And the inhibition at 200 µM (P. aeruginosa ATCC 9027; 200 µM, read-out: Average inhibition %, biofilms biomass)?
Its inhibition at 200 µM is 3.1 ± 4.2%.

What about the inhibition at 200 µM (P. aeruginosa ATCC 9027; 200 µM, read-out: Average inhibition %, planktonic cells turbidity) of the same compound?
The inhibition at 200 µM was 13.4 ± 11.7%.

And the “MIC P. aeruginosa ATCC 9027” value (P. aeruginosa ATCC 9027; pre-exposure, Inactive = no activity up to 200 μM, > = some inhibition but no MIC reached)?
The value was “Inactive”.

From PMC8296573, “Synthesis and Biological Evaluation of Fingolimod Derivatives as Antibacterial Agents” (ACS Omega, 2021)
